Source: the OPERA property sets (Mansouri et al. 2018)

Conditions: not given
In the case of `CCCCN(CCO)CCCC`, the boiling point is reported as 229 °C, the melting point is reported as -75 °C and the ready biodegradability is reported as “not readily biodegradable”. Work on `CS(=O)(=O)c1ccc(-c2cn3ccccc3n2)cc1` yielded a melting point of 243 °C. With `CCCCC(=O)C(C)C` the boiling point was 158 °C. `O=c1nn[nH]c2ccccc12` gave a melting point of 217 °C. For `c1ccc(-c2ccncn2)cc1`, the melting point was 56 °C. `CC(=O)c1ccc(Br)cc1` gave a boiling point of 257 °C and a melting point of 50.5 °C. `CC1CC(O)CC(C)(C)C1` (stereo not given) showed a boiling point of 196 °C and a melting point of 46.5 °C. With `O=Cc1cc(Br)cc(Br)c1O` the melting point was 86 °C. With `Nc1ccc([N+](=O)[O-])cc1C(=O)c1ccccc1` the melting point was 163 °C. `Cc1[nH]c2ccccc2c1C` gave a boiling point of 285 °C and a melting point of 106 °C. For `CC(C)CC=O`, the boiling point was 92.5 °C, the log10 vapour pressure (mmHg) was 1.7 and the melting point was -51 °C. `COC1=CC=C2[C@H]3Cc4ccc(OC)c5c4[C@@]2(CCN3C)[C@H]1O5` gave a melting point of 193 °C. `CCCCOC(=O)CC(=O)OCCCC` showed a boiling point of 252 °C and a melting point of -83 °C. For `Oc1ccc2ccccc2c1/N=N/c1ccc(/N=N\c2ccccc2)cc1`, the melting point was 195 °C. `CC(=O)C(C)Cl` (stereo not given) showed a boiling point of 115 °C. Work on `FC(F)(F)Cl` yielded a boiling point of -81.4 °C, a log10 Henry constant (atm·m³/mol) of 0.14 and a log10 vapour pressure (mmHg) of 4.33. For the same compound, the melting point was -181 °C. In the case of `CC1=CCCC(C)(C)C1/C=C/C(C)=C/C=C/C(C)=C/C=C/C=C(C)/C=C/C=C(C)/C=C/C1=C(C)CCCC1(C)C` (stereo not given), the melting point is reported as 188 °C. Work on `COc1cccc(C(=O)NN(C(=O)c2cc(C)cc(C)c2)C(C)(C)C)c1C` yielded a melting point of 204 °C. Compound `COC(C)(OC)OC` has a boiling point of 108 °C. For `CCCCC/C=C\C/C=C\CCCCCCCC(=O)OC`, the log10 vapour pressure (mmHg) was -5.44 and the melting point was -35 °C. `CCOC(=O)NCc1ccccc1` gave a boiling point of 230 °C and a melting point of 49 °C. With `C=C(C)[C@]1(O)C2OC(=O)C1[C@]1(O)[C@H]3O[C@H]3[C@]3(CO3)[C@]1(C)C2O` (stereo not given in full) the melting point was 225 °C. In the case of `COP1(=S)OCc2ccccc2O1` (stereo not given), the ready biodegradability is reported as “not readily biodegradable”. For `CCCCCSCCCCC`, the melting point was -51.3 °C. For `CCCC(=O)c1c(C)cc(C)c(C2CC(=O)C(C(CC)=NOCC)=C(O)C2)c1C` (stereo not given), the log10 vapour pressure (mmHg) was -8.12 and the melting point was 80.8 °C. Compound `OCCOc1ccc(Cl)cc1Cl` has a log10 vapour pressure (mmHg) of -3.7. Work on `CN1CCc2cc3c(cc2C(=O)Cc2ccc4c(c2C1)OCO4)OCO3` yielded a melting point of 208 °C. `N=C(NCCCCCCNC(=N)NC(=N)Nc1ccc(Cl)cc1)NC(=N)Nc1ccc(Cl)cc1` gave a melting point of 134 °C. `OC[C@H]1O[C@H]1c1ccccc1` showed a melting point of 26.5 °C. Compound `C=CC(Cl)Cl` has a boiling point of 84.4 °C and a log10 vapour pressure (mmHg) of 1.85. In the case of `Cc1ncc(CO)c(C=O)c1O.Cl`, the melting point is reported as 165 °C. Work on `CCC=CC(C)C` yielded a log10 vapour pressure (mmHg) of 1.88. With `CC(=O)c1ccc(C(C)C)cc1` the boiling point was 254 °C. Compound `C=C[C@@]1(C)CC[C@H]2C(=CC[C@@H]3[C@]2(C)CCC[C@@]3(C)C(=O)O)C1` has a melting point of 160 °C. Compound `C1CCC(NC2CCCCC2)CC1` has a boiling point of 256 °C, a log10 vapour pressure (mmHg) of -1.47 and a melting point of -0.1 °C. For the same compound, the ready biodegradability was “readily biodegradable”. Compound `CO/C=C(/C(=O)OC)c1ccccc1Oc1cc(Oc2ccccc2C#N)ncn1` has a log10 vapour pressure (mmHg) of -12.1 and a melting point of 116 °C. With `CC(=O)[C@@]12O[C@](C)(c3ccccc3)O[C@@H]1C[C@H]1[C@@H]3CCC4=CC(=O)CC[C@]4(C)[C@H]3CC[C@@]12C` the melting point was 150 °C. For `CCCCCCCCCCCCCCCC(C)O` (stereo not given), the melting point was 54 °C. With `C[C@H]1/C(=C\C(=O)OCCN(C)C)CC[C@H]2[C@H]1C(=O)C[C@H]1C(C)(C)[C@@H](O)CC[C@]21C` the melting point was 142 °C. For `CC(C)CNC(=O)N1CCNC1=O`, the melting point was 95.5 °C. With `Cc1ccccc1F` the boiling point was 115 °C, the log10 vapour pressure (mmHg) was 1.39 and the melting point was -62 °C. In the case of `Cc1c(Cl)cccc1Nc1ccccc1C(=O)O`, the melting point is reported as 207 °C and the ready biodegradability is reported as “not readily biodegradable”. For `O=S(=O)(O)c1ccc(O)c2ncccc12`, the melting point was 322 °C. `Cc1cccc(C(C)C)c1` gave a boiling point of 175 °C, a log10 vapour pressure (mmHg) of 0.235 and a melting point of -63.7 °C. For the same compound, the ready biodegradability was “not readily biodegradable”. In the case of `N#CCCCOc1ccccc1`, the boiling point is reported as 288 °C and the melting point is reported as 45.5 °C. In the case of `O=C(N[C@H](CO)[C@H](O)c1ccc([N+](=O)[O-])cc1)C(Cl)Cl`, the melting point is reported as 150 °C. With `CC(C)(C)c1ccncc1` the boiling point was 196 °C and the melting point was -41 °C. `C[Si](C)(C)Oc1ccccc1` gave a boiling point of 119 °C and a melting point of -55 °C. In the case of `O=C(O)CS`, the log10 vapour pressure (mmHg) is reported as -1.06, the melting point is reported as -16.5 °C and the ready biodegradability is reported as “readily biodegradable”. With `O=c1ccc2ccccc2[nH]1` the melting point was 200 °C. `CC(=O)NCC(=O)O` gave a melting point of 206 °C. With `CC(=O)OC(C)CC(C)C` (stereo not given) the boiling point was 148 °C, the log10 vapour pressure (mmHg) was 0.602 and the melting point was -64 °C. For the same compound, the ready biodegradability was “readily biodegradable”. `CC(=O)c1cc(C(C)C)ccc1C` gave a boiling point of 250 °C. In the case of `CC(C)(C#N)N=NC(C)(C)C#N`, the ready biodegradability is reported as “not readily biodegradable”. In the case of `COc1ccc(C)cc1N`, the boiling point is reported as 235 °C, the melting point is reported as 53 °C and the ready biodegradability is reported as “not readily biodegradable”. In the case of `Nc1ccc(Oc2ccc(N)cc2)cc1`, the boiling point is reported as 350 °C and the ready biodegradability is reported as “not readily biodegradable”. In the case of `CCNCCNCC`, the boiling point is reported as 146 °C. Compound `C=CCC(C)C(C)C` (stereo not given) has a boiling point of 109 °C. With `COc1cc(C(=O)NCc2ccc(OCCN(C)C)cc2)cc(OC)c1OC` the melting point was 189 °C.

Same assay, conditions: fish
Work on `O=C(O)C1CC=CCC1C(=O)O` (stereo not given) yielded a log10 BCF of 0.3 and a log10 biotransformation half-life (days) of -0.57. In the case of `Brc1c(Br)c(Br)c(Oc2c(Br)c(Br)c(Br)c(Br)c2Br)c(Br)c1Br`, the log10 biotransformation half-life (days) is reported as 1.16. Work on `CC(C)(C)c1cc(-c2ccccc2)cc(C(C)(C)C)c1O` yielded a log10 BCF of 3.78 and a log10 biotransformation half-life (days) of 1.16. With `c1ccc2cc3ccccc3cc2c1` the log10 BCF was 3.26 and the log10 biotransformation half-life (days) was 0.65. Compound `C[C@@H]1C[C@@H]([C@H](O)CC2CC(=O)NC(=O)C2)C(=O)[C@@H](C)C1` has a log10 BCF of 0.45. With `CCCCCCCCCCCCCC` the log10 biotransformation half-life (days) was 1.49. Work on `CC(CCl)OC(C)CCl` (stereo not given) yielded a log10 BCF of 1.08 and a log10 biotransformation half-life (days) of -1.07. For `Oc1ccc(Cl)cc1Cc1cc(Cl)ccc1O`, the log10 BCF was 2.28 and the log10 biotransformation half-life (days) was -0.51. With `COP1(=S)OCc2ccccc2O1` (stereo not given) the log10 BCF was 1.31 and the log10 biotransformation half-life (days) was -1.15. `C=C[C@@]1(C)CC[C@H]2C(=CC[C@@H]3[C@]2(C)CCC[C@@]3(C)C(=O)O)C1` showed a log10 BCF of 1.63. For `Cc1cccc(C(C)C)c1`, the log10 BCF was 2.73 and the log10 biotransformation half-life (days) was 0.07. `COc1ccc(C)cc1N` showed a log10 BCF of 0.55 and a log10 biotransformation half-life (days) of -1.
